System: PbrACO2
Details: citrate to isocitrate conversion; recombinant His-PbrACO2

Question: Which Km does the source give for `O=C(O)CC(O)(CC(=O)O)C(=O)O` [citrate] here?
Answer: 630 µM

From publication PMC12512694, “PbrNAC34a- PbrMYB3/65- PbrACO2 cascade plays a role in citrate difference between the pericarp and cortex tissues of pear (P. bretschneideri Rehd.) fruit” (Molecular Horticulture, 2025)
